# Data: PubChem BioAssay (NCI)
# Values joined by “and” are separate entries in the source; they are usually repeats but may differ in a detail not shown here. Equal entries are not always repeated.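 Grown in 96-well plates, cells were treated for 48 hours with each compound at five concentrations. Insufficient inhibition: endpoint recorded as highest concentration tested. GI50 marks 50% less growth. TGI denotes the concentration required for complete inhibition of growth.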
# How the values were obtained:
# Test in all cases: growth of human tumour cells (NCI), 48 h
# M19-MEL melanoma = system: M19-MEL melanoma
# SNB-19 CNS = system: SNB-19 CNS
# OVCAR-8 ovarian = system: OVCAR-8 ovarian
# SK-OV-3 ovarian = system: SK-OV-3 ovarian
# A498 renal = system: A498 renal
# RPMI-8226 leukemia = system: RPMI-8226 leukemia
# ACHN renal = system: ACHN renal
# DMS 114 small cell lung = system: DMS 114 small cell lung
# HS 578T breast = system: HS 578T breast
# MDA-MB-435 = system: MDA-MB-435
SMILES,TGI (M19-MEL melanoma) [µM],TGI (SNB-19 CNS),TGI (OVCAR-8 ovarian) [µM],TGI (SK-OV-3 ovarian),TGI (A498 renal),TGI (RPMI-8226 leukemia) [µM],TGI (ACHN renal) [µM],TGI (DMS 114 small cell lung) [µM],GI50 (M19-MEL melanoma) [µM],GI50 (SNB-19 CNS),GI50 (OVCAR-8 ovarian) [µM],GI50 (SK-OV-3 ovarian),GI50 (DMS 114 small cell lung) [µM],GI50 (RPMI-8226 leukemia) [µM],GI50 (ACHN renal) [µM],GI50 (A498 renal) [µM],GI50 (HS 578T breast) [µM],TGI (HS 578T breast) [µM],GI50 (MDA-MB-435) [µM],TGI (MDA-MB-435) [µM]
N#CC(C(=O)CCC(=O)Nc1cccc(C(F)(F)F)c1)c1ccc(Cl)cc1 (stereo not drawn),> 100,> 100 µM,> 100,> 100 µM,> 100 µM,> 100,> 100,,,,,,,,,,,,,
CC(C)(C)OC(=O)N1N=NC2C1C1CC(OCc3ccccc3)(OCc3ccccc3)C2O1 (stereo not drawn),> 100,,,> 100 µM,> 100 µM,63.6,> 100,40.6,,,,,,,,,,,,
COc1cc(C2C(C(=O)Nc3cc(F)c(F)cc3F)=C(C)NC(C)=C2C(=O)Nc2cc(F)c(F)cc2F)ccc1O,77.3,> 100 µM,96.7,,55.3 µM,47.3,65.3,41.8,,,,,,,,,,,,
Oc1ccc(Br)cc1C=Nc1ccc(N=Cc2cc(Br)ccc2O)cc1,,> 100 µM,> 100,> 100 µM,> 100 µM,> 100,> 100,> 100,,,,,,,,,,,,
Cc1cccc(C)c1NC(=O)C(=O)CC(=O)c1cccc([N+](=O)[O-])c1,> 100,> 100 µM,> 100,,> 100 µM,> 100,> 100,,,,,,,,,,,,,
CCCCc1c2c(nc3c1CCC/C3=C\c1ccccc1)/C(=C/c1ccccc1)CCC2,> 100,> 100 µM,> 100,> 100 µM,,> 100,> 100,> 100,,,,,,,,,,,,
COc1cc(C(=O)C/C(CCC(=O)Nc2ccc(Cl)cc2Cl)=N/NC(=O)C(=O)NN)ccc1O,> 100,> 100 µM,> 100,> 100 µM,> 100 µM,,> 100,> 100,,,,,,,,,,,,
C/C(CCn1[nH]c(=O)ccc1=O)=N\OCCCc1ccccc1,> 100,> 100 µM,> 100,,> 100 µM,> 100,> 100,> 100,,,,,,,,,,,,
c1ccc(CSc2nc3ccccc3nc2-c2cccs2)cc1,> 100,> 100 µM,> 100,> 100 µM,,> 100,> 100,> 100,,,,,,,,,,,,
CCOc1ccccc1NC(=O)C(=O)Cc1nc2ccccc2s1,> 100,> 100 µM,> 100,> 100 µM,> 100 µM,,> 100,> 100,,,,,,,,,,,,
[F][Sn]([F])([c]1ccccc1)[c]1ccccc1,6.2,5.58 µM,4.88,7.49 µM,,3.79,2.97,5.8,2.35,2.25 µM,2.05,2.31 µM,2,1.11,1.6,,,,,
O=C(O)CSc1n[nH]c(Cc2ccccc2)n1,> 100,> 100 µM,> 100,> 100 µM,,> 100,> 100,> 100,,,,,,,,,,,,
C[C@]12CC[C@@H]3c4ccc(O)c([N+](=O)[O-])c4CC[C@H]3[C@@H]1CC[C@@H]2NS(=O)(=O)c1cccc(Br)c1,,14.1 µM,10.7,7.53 µM,5.87 µM,6.27,8.17,,,3.53 µM,2.92,2.94 µM,,2.44,2.59,2.06,2.23,6,1.53,2.98
C/C(=N\NC(=S)N1CC2CCC(CC2)C1)c1ccccn1,,3.78 µM,1.53,1.01 µM,1.91 µM,0.78,1.52,,,0.345 µM,< 0.0209,0.0465 µM,,0.0368,0.0347,0.416,0.226,3.87,0.141,1.64
CCCCCCCCCCCCOC1C(C(CC(=O)NCCN2CCCC2)NS(=O)(=O)c2cc(Cl)cc(Cl)c2)OC2OC(C)(C)OC21 (stereo not drawn),,4.36 µM and 2.81 µM,4.88,3.79 µM and 2.73 µM,4.79 µM,3.21,3.37,,,2.2 µM and 1.37 µM,2.21,2.08 µM and 1.32 µM,,1.23,1.9,2.4,2.23,4.16,1.41,3.03
O=C(Nc1ccc(Cl)c(Cl)c1)Nc1ccccc1O,,44.3 µM,32.4,40.8 µM,27.2 µM,32.3,51.5,,,9.92 µM,5.1,16 µM,,3.37,3.9,12.2,6.69,37.5,3.96,15.3

SMILES,TGI (M19-MEL melanoma) [µM],TGI (SNB-19 CNS),TGI (OVCAR-8 ovarian) [µM],TGI (SK-OV-3 ovarian),TGI (A498 renal),TGI (RPMI-8226 leukemia) [µM],TGI (ACHN renal) [µM],TGI (DMS 114 small cell lung) [µM],GI50 (M19-MEL melanoma) [µM],GI50 (SNB-19 CNS),GI50 (OVCAR-8 ovarian) [µM],GI50 (SK-OV-3 ovarian),GI50 (DMS 114 small cell lung) [µM],GI50 (RPMI-8226 leukemia) [µM],GI50 (ACHN renal) [µM],GI50 (A498 renal) [µM],GI50 (HS 578T breast) [µM],TGI (HS 578T breast) [µM],GI50 (MDA-MB-435) [µM],TGI (MDA-MB-435) [µM]
CC1CN1c1c(C(=O)/C=C/c2ccc(Cl)cc2)c(-c2ccccc2)nn(C)c1=O (stereo not drawn),> 10,> 10 µM,5.67,5.76 µM,> 10 µM,,5.27,> 10,,,,,,,,,,,,
CN(C)CCSc1nccc(-c2cc3ccccc3s2)n1,,,65,94.9 µM,58.3 µM,,,51.6,,,,,,,,,,,,
COC(C(=O)[C@@H](O)[C@@H](C)O)[C@@H]1Cc2cc3cc(O[C@H]4C[C@@H](O[C@H]5C[C@@H](O)[C@H](O)C(C)O5)[C@H](O)C(C)O4)c(C)c(O)c3c(O)c2C(=O)[C@H]1O[C@H]1C[C@@H](O[C@H]2C[C@@H](O[C@H]3C[C@@H](O)[C@H](OC)C(C)O3)[C@@H](O)C(C)O2)[C@H](O)C(C)O1 (stereo partly drawn),,> 33.3 µM,> 33.3,> 33.3 µM,0.0224 µM,7.13,> 33.3,,,,0.0286,,,0.0141,0.0831,0.00614,0.019,> 33.3,0.0219,0.197
N#Cc1ccc(OC(=O)Nc2ccc(Cl)c(Cl)c2)cc1,,> 100 µM,44.8,51.2 µM,6.92 µM,6.77,14.5,,,3.1 µM,3.3,5.98 µM,,2.43,2.97,1.44,5.02,28.9,3.17,22.4
O=c1[nH]c(=O)n([C@H]2CCCO2)cc1F,,> 5000 µM,> 5000,984 µM and > 5000 µM,979 µM and > 5000 µM,> 5000,> 5000,,,,2270,> 3620 µM,,666,2600,> 2170,,> 4650,1350,> 5000
CC[C@@]1(O)C(=O)OCc2c1cc1n(c2=O)Cc2c-1nc1cc(F)c(C)c3c1c2[C@@H](N)CC3,,> 100 µM,> 100,1.41 µM,0.0221 µM,1.58,0.026,,,< 0.01 µM,< 0.01,< 0.01 µM,,0.0109,< 0.01,< 0.01,0.735,> 100,0.015,1.48
Nc1ccc2[nH]cc(CCC(=O)O)c2c1,,> 100 µM,> 100,> 100 µM,> 100 µM,> 100,> 100,,,,,,,,,,,> 100,,> 100
O=c1c2ccccc2nc(-c2ccccc2)n1NC(=S)Nc1ccccc1,> 100,,> 100,> 100 µM,> 100 µM,> 100,> 100,73.7,,,,,,,,,,,,
Cc1cc(C)n(-c2nnc3n2N=C(c2ccc(-c4ccccc4)cc2)CS3)n1,,> 100 µM,> 100,> 100 µM,7.09 µM,> 100,> 100,,,3.98 µM,3.51,3.79 µM,,3.18,3.98,2.03,2.76,> 100,1.71,4.46
CC(C(=O)n1c2ccccc2c2ccccc21)N(c1ccccc1)c1ccccc1 (stereo not drawn),32.5,> 100 µM,37.7,36.2 µM,,36.2,30.7,32.5,,,,,,,,,,,,
CC1=C(c2cc(C(=O)Nc3ccc(Cl)cc3)nc(=S)[nH]2)Sc2ccccc2N1,> 100,> 100 µM,> 100,> 100 µM,> 100 µM,,> 100,> 100,,,,,,,,,,,,
COC(=O)c1cc(/C=C/c2ccc(S(N)(=O)=O)cc2)ccc1O,,> 100 µM,> 100,> 100 µM,20.2 µM,> 100,> 100,,,38.2 µM,27.3,> 100 µM,,27.4,29.6,0.0161,29.7,72.1,35.6,> 100
Cc1cc2c(nn1)-c1ccccc1C2=O,,> 10 µM,> 10,> 10 µM,> 10 µM,> 10,> 10,,,,,,,,,,,> 10,,> 10
O=C(O)CN(c1ccccc1)S(=O)(=O)c1ccc([N+](=O)[O-])cc1,> 100,> 100 µM,> 100,> 100 µM,> 100 µM,> 100,> 100,,,,,,,,,,,,,
Nc1nc(N)nc(CCCc2nc(N)nc(N)n2)n1,,> 100 µM,> 100,> 100 µM,> 100 µM,> 100,> 100,,,,,,,,,,,> 100,,> 100
